Measured values from patent US6156541A (priority 1998, dated 2000).
Where a SMILES comes first, the peptide text is derived from it. [ ]: non-standard residue; d: D form. The star is where a group is joined. Sta = CC(C)C[C@H](N)[C@@H](O)CC(=O)O; Isovaleryl = CC(C)CC(=O)*

System: Lay2 L chain, human monoclonal antibody light chain (Bence Jones protein, kappa IIc subgroup) from a multiple myeloma patient
Type: biochemical

Compound: NC(=O)CI [iodoacetamide]
- Effect on Lay2-catalyzed gp120 hydrolysis: without effect

Compound: CC(C)CC(=O)N[C@H](C(=O)N[C@H](C(=O)N[C@@H](CC(C)C)[C@@H](O)CC(=O)N[C@@H](C)C(=O)N[C@@H](CC(C)C)[C@@H](O)CC(=O)O)C(C)C)C(C)C [Pepstatin A] (Isovaleryl-VV[Sta]A[Sta]-OH)
- Effect on Lay2-catalyzed gp120 hydrolysis: without effect

Compound: O=C(O)CN(CCN(CC(=O)O)CC(=O)O)CC(=O)O [EDTA]
- Effect on Lay2-catalyzed gp120 hydrolysis: without effect
